The text below walks through data of patent EP2145877A2, “Aurora Kinase inhibitors” (Takeda Pharmaceutical Company Limited, priority 2006, dated 2008).

Aurora B/INCENP, sequence (Q96GD4 whole entry): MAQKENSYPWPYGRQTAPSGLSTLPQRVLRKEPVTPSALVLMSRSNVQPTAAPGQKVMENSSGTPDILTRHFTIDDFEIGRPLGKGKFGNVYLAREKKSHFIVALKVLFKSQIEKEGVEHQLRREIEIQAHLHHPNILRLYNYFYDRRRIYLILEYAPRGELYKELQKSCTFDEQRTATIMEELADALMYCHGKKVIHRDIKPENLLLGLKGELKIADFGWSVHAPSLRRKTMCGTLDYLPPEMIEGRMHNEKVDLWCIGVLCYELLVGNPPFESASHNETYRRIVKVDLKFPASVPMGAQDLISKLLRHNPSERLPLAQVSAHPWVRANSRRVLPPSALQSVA
Aurora B/INCENP, sequence (Q9NQS7 whole entry partner): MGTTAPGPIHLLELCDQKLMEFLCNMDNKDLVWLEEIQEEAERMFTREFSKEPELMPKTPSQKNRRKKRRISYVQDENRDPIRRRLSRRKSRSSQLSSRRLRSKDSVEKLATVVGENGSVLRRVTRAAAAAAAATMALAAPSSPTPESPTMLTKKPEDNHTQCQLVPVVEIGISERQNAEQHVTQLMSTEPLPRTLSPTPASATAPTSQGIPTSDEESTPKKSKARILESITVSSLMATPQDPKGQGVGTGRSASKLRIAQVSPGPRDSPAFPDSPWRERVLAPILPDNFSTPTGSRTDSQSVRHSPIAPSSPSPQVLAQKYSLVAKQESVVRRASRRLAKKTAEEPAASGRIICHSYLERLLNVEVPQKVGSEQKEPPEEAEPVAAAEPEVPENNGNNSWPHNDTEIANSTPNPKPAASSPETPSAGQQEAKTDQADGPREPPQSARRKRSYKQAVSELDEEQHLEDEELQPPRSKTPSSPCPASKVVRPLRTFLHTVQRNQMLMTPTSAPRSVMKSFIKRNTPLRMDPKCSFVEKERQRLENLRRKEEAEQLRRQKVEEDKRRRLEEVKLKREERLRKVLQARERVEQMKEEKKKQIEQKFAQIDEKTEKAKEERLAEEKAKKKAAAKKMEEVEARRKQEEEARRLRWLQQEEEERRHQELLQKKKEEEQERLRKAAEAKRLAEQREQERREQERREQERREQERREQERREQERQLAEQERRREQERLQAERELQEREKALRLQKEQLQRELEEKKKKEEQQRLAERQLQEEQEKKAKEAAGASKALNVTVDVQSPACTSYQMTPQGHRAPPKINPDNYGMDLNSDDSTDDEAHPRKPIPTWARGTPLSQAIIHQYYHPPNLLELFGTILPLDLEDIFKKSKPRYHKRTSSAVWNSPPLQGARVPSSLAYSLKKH

The assay concerns the target Aurora B/INCENP (Homo sapiens, UniProt Q96GD4). The assay can be described thus: Inhibition of AIK: Aurora B/INCENP Direct Fluorescence Polarization (IMAP) kinase assay. Particulars: IC50 against AIK B; 10 uM ATP, 0.8 nM Aurora B/INCENP, 45 min at room temperature, FP readout; values given as bins. Type of assay: biochemical. The protocol:
Detection of the reaction product is performed by addition of Progressive IMAP binding reagent (Molecular Devices). Reaction product may be determined quantitatively by FP using an Analyst HT plate reader (Molecular Devices) with an excitation wavelength at 485 nm and emission at 530 nm and using a Fluorescein 505 dichroic mirror.
The assay reaction may be initiated as follows: 2 ul of (3x) 300 nM Fl-Peptide/30 uM ATP was added to each well of the plate, followed by the addition of 2 ul of (3x) inhibitor (2 fold serial dilutions for 11 data points for each inhibitor) containing 15% DMSO. Two microliters of (3x) 2.4 nM AuroraB/INCENP solution may be added to initiate the reaction (final enzyme concentration was 0.8 nM for Aurora B/INCENP). The reaction mixture may then be incubated at room temperature for 45 min, and quenched and developed by addition of 20 ul of 1 to 400 diluted Progressive IMAP binding reagent in 1x proprietary Progressive IMAP binding buffer A. Fluorescence polarization readings of the resulting reaction mixtures may be measured after a 60-minute incubation at room temperature.
IC50 values may be calculated by non-linear curve fitting of the compound concentrations and fluorescent polarization values to the standard IC50 equation.
In general terms: Fluorescence polarisation rises when a labelled molecule tumbles more slowly, as on binding a larger partner.
For orientation: IC50 means the concentration needed to halve the response being measured. Lower therefore signals higher potency. In the case of `CNS(=O)(=O)c1cccc(-c2ccc(C)c3[nH]c4ncc(C)cc4c23)c1` [Compound 15, 3-(3,8-dimethyl-9H-pyrido[2,3-b]indol-5-yl)-N-methylbenzenesulfonamide], the IC50 is at most 5 nM.
In turn, `CCS(=O)(=O)c1cccc(-c2cnc(Cl)c3[nH]c4ncc(C)cc4c23)c1` [Compound 40, 8-chloro-5-[3-(ethylsulfonyl)phenyl]-3-methyl-9H-pyrido[4',3':4,5]pyrrolo[2,3-b]pyridine] yielded a concentration for half-maximal inhibition (IC50) of at most 5 nM.
Then `CCS(=O)(=O)c1cccc(-c2cnc(OCCCO)c3[nH]c4ncc(C)cc4c23)c1` [Compound 55, 3-[5-(3-Ethanesulfonyl-phenyl)-3-methyl-9H-dipyrido[2,3-b;4',3'-d]pyrrol-8-yloxy]-propan-1-ol], with at most 5 nM; and `CCS(=O)(=O)c1cccc(-c2cnc(OC[C@H](C)O)c3[nH]c4ncc(C)cc4c23)c1` [Compound 62, (S)-1-[5-(3-Ethanesulfonyl-phenyl)-3-methyl-9H-dipyrido[2,3-b;4',3'-d]pyrrol-8-yloxy]-propan-2-ol], with at most 5 nM; and `CCS(=O)(=O)c1cccc(-c2cnc(OCC3CCN(C)CC3)c3[nH]c4ncc(Cl)cc4c23)c1` [Compound 72, 3-Chloro-5-(3-ethanesulfonyl-phenyl)-8-(1-methyl-piperidin-4-ylmethoxy)-9H-dipyrido[2,3-b;4',3'-d]pyrrole], with at most 5 nM.
The result for `CCS(=O)(=O)c1cccc(-c2cc(C(=O)NC[C@H](C)O)c(C)c3[nH]c4ncc(C)cc4c23)c1` [Compound 100, (S)-5-(3-(ethylsulfonyl)phenyl)-N-(2-hydroxypropyl)-3,8-dimethyl-9H-pyrido[2,3-b]indole-7-carboxamide] reads at most 5 nM.
`CCS(=O)(=O)c1cccc(-c2cc(C(=O)NCCO)c(C)c3[nH]c4ncc(C)cc4c23)c1` [Compound 101, 5-(3-(ethylsulfonyl)phenyl)-N-(2-hydroxyethyl)-3,8-dimethyl-9H-pyrido[2,3-b]indole-7-carboxamide]: the IC50 is at most 5 nM.
For the compound `CCS(=O)(=O)c1cccc(-c2cc(C(N)=O)cc3[nH]c4ncc(C)cc4c23)c1` [Compound 128, 5-(3-Ethanesulfonyl-phenyl)-3-methyl-9H-pyrido[2,3-b]indole-7-carboxylic acid amide], the IC50 was at most 5 nM.
Turning to `CCS(=O)(=O)c1cccc(-c2cc(C(=O)O)cc3[nH]c4ncc(C)cc4c23)c1` [Compound 140, 5-(3-Ethanesulfonyl-phenyl)-3-methyl-9H-pyrido[2,3-b]indole-7-carboxylic acid], the IC50 is at most 5 nM.
Take `CCS(=O)(=O)c1cccc(-c2ccc(OC)c3[nH]c4ncc(C)cc4c23)c1` [Compound 157]: the IC50 is at most 5 nM.
The compound `CCS(=O)(=O)c1cccc(-c2ccc(O)c3[nH]c4ncc(C)cc4c23)c1` [Compound 158, 5-(3-(ethylsulfonyl)phenyl)-3-methyl-9H-pyrido[2,3-b]indol-8-ol] returned an IC50 of at most 5 nM.
Regarding `CCNS(=O)(=O)c1cccc(-c2ccc(OC)c3[nH]c4ncc(C)cc4c23)c1` [Compound 170, N-ethyl-3-(8-methoxy-3-methyl-9H-pyrido[2,3-b]indol-5-yl)benzenesulfonamide], the IC50 was at most 5 nM.
Then `CCS(=O)(=O)c1cccc(-c2ccc(OCC3CCNCC3)c3[nH]c4ncc(C)cc4c23)c1` [Compound 185, 5-(3-(ethylsulfonyl)phenyl)-3-methyl-8-(piperidin-4-ylmethoxy)-9H-pyrido[2,3-b]indole], with at most 5 nM.
The result for `Cc1cnc2[nH]c3c(OCCCN(C)C)ccc(-c4cccc(S(=O)(=O)C5CC5)c4)c3c2c1` [Compound 194, 3-(5-(3-(cyclopropylsulfonyl)phenyl)-3-methyl-9H-pyrido[2,3-b]indol-8-yloxy)-N,N-dimethylpropan-1-amine] reads at most 5 nM.
Consider `CCS(=O)(=O)c1cccc(-c2ccc(OCC3CCN(C)CC3)c3[nH]c4ncc(Cl)cc4c23)c1` [Compound 200, 3-chloro-5-(3-(ethylsulfonyl)phenyl)-8-((1-methylpiperidin-4-yl)methoxy)-9H-pyrido[2,3-b]indole], for which the IC50 was at most 5 nM.
Compound `CCS(=O)(=O)c1cccc(-c2ccc(OCC3CCNCC3)c3[nH]c4ncc(Cl)cc4c23)c1` [Compound 201, 3-chloro-5-(3-(ethylsulfonyl)phenyl)-8-(piperidin-4-ylmethoxy)-9H-pyrido[2,3-b]indole] returned an IC50 of at most 5 nM.
As to `CCS(=O)(=O)c1cccc(-c2ccc(OCCCN(C)C)c3[nH]c4ncc(C)cc4c23)c1` [Compound 206, 3-(5-(3-(ethylsulfonyl)phenyl)-3-methyl-9H-pyrido[2,3-b]indol-8-yloxy)-N,N-dimethylpropan-1-amine], the IC50 was at most 5 nM.
Then `CCS(=O)(=O)c1cccc(-c2ccc(OCCCO)c3[nH]c4ncc(C)cc4c23)c1` [Compound 217, 3-(5-(3-(ethylsulfonyl)phenyl)-3-methyl-9H-pyrido[2,3-b]indol-8-yloxy)propan-1-ol], with at most 5 nM; and `CCS(=O)(=O)c1cccc(-c2ccc(OCCCN(C)C)c3[nH]c4ncc(Cl)cc4c23)c1` [Compound 220, 3-(3-chloro-5-(3-(ethylsulfonyl)phenyl)-9H-pyrido[2,3-b]indol-8-yloxy)-N,N-dimethylpropan-1-amine], with at most 5 nM.
Compound `CCS(=O)(=O)c1cccc(-c2ccc(OC[C@H](O)CO)c3[nH]c4ncc(C)cc4c23)c1` [Compound 231, (R)-3-(5-(3-(ethylsulfonyl)phenyl)-3-methyl-9H-pyrido[2,3-b]indol-8-yloxy)propane-1,2-diol] showed an IC50 of at most 5 nM.
The result for `CCN(CCO)CCCOc1ccc(-c2cccc(S(=O)(=O)C3CC3)c2)c2c1[nH]c1ncc(C)cc12` [Compound 270, 2-((3-(5-(3-(cyclopropylsulfonyl)phenyl)-3-methyl-9H-pyrido[2,3-b]indol-8-yloxy)propyl)(ethyl)amino)ethanol] reads at most 5 nM.
With `CCN(CCCOc1ccc(-c2cccc(S(=O)(=O)C3CC3)c2)c2c1[nH]c1ncc(Cl)cc12)CCOP(=O)(O)O` [Compound 299, 2-((3-(3-chloro-5-(3-(cyclopropylsulfonyl)phenyl)-9H-pyrido[2,3-b]indol-8-yloxy)propyl)(ethyl)ammo)ethyl dihydrogen phosphate], the IC50 is at most 5 nM.
`Cc1cnc2[nH]c3c(OC[C@@H](O)CN(C)C)ccc(-c4cccc(S(=O)(=O)C5CC5)c4)c3c2c1` [Compound 313, (S)-1-(5-(3-(cyclopropylsulfonyl)phenyl)-3-methyl-9H-pyrido[2,3-b]indol-8-yloxy)-3-(dimethylamino)propan-2-ol] yielded an IC50 of at most 5 nM.
